Test results as given in US11872228B2, “Pharmaceutical composition containing thiamine derivative for prevention or treatment of sepsis” (KYUNGPOOK NATIONAL UNIVERSITY INDUSTRY-ACADEMIC COOPERATION …, priority 2021, dated 2024).

What was measured:
[1] = system: CD86; assay: CD86 expression in CD11c+ dendritic cells by flow cytometry; format: cell-based, C57BL/6J male mice; conditions: 50 μM, 100 ng/mL LPS
[2] = system: IL-1β; assay: Inhibition of IL-1β expression in LPS-primed, ATP-treated dendritic cells; format: cell-based, C57BL/6J male mice; conditions: for IL-1β: LPS priming + 5 mM ATP
Protocol: Bone marrow was extracted from the legs of six- to eight-week old C57BL/6J male mice, and subjected to red blood cell (RBC) lysis, followed by differentiation into dendritic cells in RPMI 1640 medium (10% fetal bovine serum (FBS) and 1% penicillin-streptomycin) along with 20 ng/ml granulocyte-macrophage colony-stimulating factor (GM-CSF) for six days. The dendritic cells at 1×10^6 cells/mL were treated with benfotiamine and fursultiamine at different concentrations of 0, 1, 10, and 100 and allithiamine at different concentrations of 0, 1, and 10 μM.
The dendritic cells were subjected to pro-IL1b priming by the treatment with 500 ng/mL LPS for 3 hours, and then treated with benfotiamine at 0, 10, 50, or 100 and fursultiamine at 0, 10, 50, or 100 μM, for 15 minutes. Then, pro-IL1b was converted into IL-1β through pro-IL1b cleavage, followed by 5 mM ATP treatment for inducing inflammasome formation.

[3] = system: CD40; assay: CD40 expression in CD11c+ dendritic cells by flow cytometry; format: cell-based, C57BL/6J male mice
Protocol: (§1) The dendritic cells at 1×10^6 cells/mL were treated with benfotiamine and fursultiamine at different concentrations of 0, 1, 10, and 100 and allithiamine at different concentrations of 0, 1, and 10 μM.
(§2) The dendritic cells were measured for CD40 and CD86 in CD11c+ cells by flow cytometry, and the results are shown in FIGS. 6A and 6B and Tables 5 and 6.

[4] = system: TNFα; assay: Inhibition of TNFα expression in LPS-activated dendritic cells (ELISA of supernatants); format: cell-based, C57BL/6J male mice; conditions: for TNFα: dendritic cells not stimulated by LPS
[5] = system: CD86; assay: CD86 expression in CD11c+ dendritic cells by flow cytometry; format: cell-based, C57BL/6J male mice
Protocol: as §1, §2

[6] = system: TNFα; assay: Inhibition of TNFα expression in LPS-activated dendritic cells (ELISA of supernatants); format: cell-based, C57BL/6J male mice; conditions: for TNFα (pg/mL): 100 ng/mL LPS 18 h; for TNFα expression level relative to LPS alone: LPS-activated dendritic cells
Protocol: as §1
Thereafter, the dendritic cells were activated with 100 ng/mL LPS for 18 hours.

[7] = system: TNFα; assay: Inhibition of TNFα expression in vivo (allithiamine along with LPS); set-up: species or system mice
Protocol: The inhibition of TNFα expression in vivo was investigated by the administration of 5 mg/kg allithiamine along with 50 mg/kg LPS, and the results are shown in FIG. 7A and Table 7.

[8] = system: LPS-induced sepsis mouse model; assay: Survival rate of murine sepsis model, allithiamine treatment; format: in vivo, C57BL/6J male mice
Protocol: The mice were intravenously (I.V.) administered 5 mg/kg allithiamine immediately before intraperitoneal injection of 50 mg/kg LPS, and then the survival rates were monitored (allithiamine 5 mg/kg co-treatment). In addition, the mice were intravenously administered 5 mg/kg allithiamine three hours after LPS injection, and then the survival rates were monitored (allithiamine 5 mg/kg 3 h-delayed co-treatment), and the results are shown in FIG. 3 and Table 2.

[9] = 1 μM, dendritic cells, 100 ng/mL LPS
[10] = 10 μM, dendritic cells, 100 ng/mL LPS
[11] = 100 μM, dendritic cells not stimulated by LPS
[12] = 100 μM, dendritic cells, 100 ng/mL LPS
[13] = 10 μM, dendritic cells not stimulated by LPS
[14] = allithiamine 5 mg/kg along with LPS 50 mg/kg

C/C(=C(\CCOP(=O)(O)O)SC(=O)c1ccccc1)N(C=O)Cc1cnc(C)nc1N [Benfotiamine, benfotiamine]
CD86 (Mean fluorescence intensity; MFI) [1]: 2,448 MFI
IL-1β ([2]; 10 μM): 912.2951 pg/mL
IL-1β ([2]; 50 μM): 914.9398 pg/mL
IL-1β ([2]; 100 μM): 914.2512 pg/mL
Inhibition of the IL-1β expression increased by LPS (in words) ([2]; up to 100 μM): could not inhibit
CD40 (Mean fluorescence intensity; MFI) [3, 9]: 2,134 MFI
CD40 (Mean fluorescence intensity; MFI) [3, 10]: 1,975 MFI
CD40 (Mean fluorescence intensity; MFI) [3, 11]: 248 MFI
CD40 (Mean fluorescence intensity; MFI) [3, 12]: 1,803 MFI
Inhibition of the CD40 expression increased by LPS (in words) ([3]; dendritic cells, up to 100 μM): could not inhibit
TNFα (pg/mL) ([4]; 50 μM, dendritic cells, 100 ng/mL LPS 18 h): 4,806.97 pg/mL
TNFα ([4]; 100 μM): 84.82 pg/mL
CD86 (Mean fluorescence intensity; MFI) [5, 9]: 2,734 MFI
CD86 (Mean fluorescence intensity; MFI) [5, 10]: 2,198 MFI
CD86 (Mean fluorescence intensity; MFI) [5, 11]: 382 MFI
CD86 (Mean fluorescence intensity; MFI) [5, 12]: 430 MFI
Inhibition of the CD86 expression increased by LPS (in words) ([5]; dendritic cells, up to 100 μM): could not inhibit
TNFα (pg/mL) ([6]; 1 μM, dendritic cells): 4,909.05 pg/mL
TNFα (pg/mL) ([6]; 10 μM, dendritic cells): 4,614.42 pg/mL
TNFα (pg/mL) ([6]; 100 μM, dendritic cells): 4,696.43 pg/mL
Inhibition of the TNFα expression increased by LPS (in words) ([6]; dendritic cells, up to 100 μM): could not inhibit

C=CCSS/C(CCO)=C(/C)N(C=O)Cc1cnc(C)nc1N [Allithiamine, allithiamine]
CD40 (Mean fluorescence intensity; MFI) [3, 9]: 1,998 MFI
CD40 expression level relative to LPS alone ([3]; 10 μM, dendritic cells): about 49%
CD40 (Mean fluorescence intensity; MFI) [3, 13]: 253 MFI
CD40 (Mean fluorescence intensity; MFI) [3, 10]: 982 MFI
TNFα ([4]; 10 μM): 78.51 pg/mL
Reduction of TNFα expression relative to LPS alone [7, 14]: about 46.494%
TNFα (pg/mL) [7, 14]: 2,084.883 pg/mL
TNFα ([7]; allithiamine 5 mg/kg, without LPS): 82.442 pg/mL
CD86 (Mean fluorescence intensity; MFI) [5, 9]: 2,184 MFI
CD86 expression level relative to LPS alone ([5]; 10 μM, dendritic cells): about 64%
CD86 (Mean fluorescence intensity; MFI) [5, 13]: 304 MFI
CD86 (Mean fluorescence intensity; MFI) [5, 10]: 1,704 MFI
Percent survival (%) ([8]; 5 mg/kg i.v. 3 h-delayed treatment (3 h after 50 mg/kg LPS i.p.), 0 h): 100%
Percent survival (%) ([8]; 5 mg/kg i.v. 3 h-delayed treatment, 50 mg/kg LPS, 20 h): 100%
Percent survival (%) ([8]; 5 mg/kg i.v. 3 h-delayed treatment, 50 mg/kg LPS, 24 h): 100%
Percent survival (%) ([8]; 5 mg/kg i.v. 3 h-delayed treatment, 50 mg/kg LPS, 28 h): 83.3%
Percent survival (%) ([8]; 5 mg/kg i.v. 3 h-delayed treatment, 50 mg/kg LPS, 32 h): 83.3%
Percent survival (%) ([8]; 5 mg/kg i.v. 3 h-delayed treatment, 50 mg/kg LPS, 36 h): 83.3%
Percent survival (%) ([8]; 5 mg/kg i.v. 3 h-delayed treatment, 50 mg/kg LPS, 40 h): 83.3%
Percent survival (%) ([8]; 5 mg/kg i.v. 3 h-delayed treatment, 50 mg/kg LPS, 44 h): 66.7%
Percent survival (%) ([8]; 5 mg/kg i.v. 3 h-delayed treatment, 50 mg/kg LPS, 48 h): 66.7%
Percent survival (%) ([8]; 5 mg/kg i.v. 3 h-delayed treatment, 50 mg/kg LPS, 52 h): 66.7%
Percent survival (%) ([8]; 5 mg/kg i.v. 3 h-delayed treatment, 50 mg/kg LPS, 56 h): 66.7%
Percent survival (%) ([8]; 5 mg/kg i.v. 3 h-delayed treatment, 50 mg/kg LPS, 60 h): 66.7%
Percent survival (%) ([8]; 5 mg/kg i.v. co-treatment (immediately before 50 mg/kg LPS i.p.), 0 h): 100%
Percent survival (%) ([8]; 5 mg/kg i.v. co-treatment, 50 mg/kg LPS, 20 h): 100%
Percent survival (%) ([8]; 5 mg/kg i.v. co-treatment, 50 mg/kg LPS, 24 h): 83.3%
Percent survival (%) ([8]; 5 mg/kg i.v. co-treatment, 50 mg/kg LPS, 28 h): 83.3%
Percent survival (%) ([8]; 5 mg/kg i.v. co-treatment, 50 mg/kg LPS, 32 h): 83.3%
Percent survival (%) ([8]; 5 mg/kg i.v. co-treatment, 50 mg/kg LPS, 36 h): 66.7%
Percent survival (%) ([8]; 5 mg/kg i.v. co-treatment, 50 mg/kg LPS, 40 h): 66.7%
Percent survival (%) ([8]; 5 mg/kg i.v. co-treatment, 50 mg/kg LPS, 44 h): 66.7%
Percent survival (%) ([8]; 5 mg/kg i.v. co-treatment, 50 mg/kg LPS, 48 h): 66.7%
Percent survival (%) ([8]; 5 mg/kg i.v. co-treatment, 50 mg/kg LPS, 52 h): 66.7%
Percent survival (%) ([8]; 5 mg/kg i.v. co-treatment, 50 mg/kg LPS, 56 h): 66.7%
Percent survival (%) ([8]; 5 mg/kg i.v. co-treatment, 50 mg/kg LPS, 60 h): 66.7%
TNFα expression level relative to LPS alone ([6]; 1 μM): about 88.68%
TNFα (pg/mL) ([6]; 1 μM, dendritic cells): 4,654.84 pg/mL
TNFα expression level relative to LPS alone ([6]; 10 μM): about 74.68%
TNFα (pg/mL) ([6]; 10 μM, dendritic cells): 3,919.75 pg/mL
